Measurements as given in patent US20190144942A1, “METHODS FOR IDENTIFYING AND MODULATING IMMUNE PHENOTYPES” (priority 2016, published 2019).
Entries after “also recorded” stand apart in the source; their conditions may differ. Read-outs that look alike come from different tables or passages of the source.

Tests used:
Assay type in all cases: cell-based, human
[1] = system: cluster 1-like/CD64^Hi,PD-L1^Hi cDCs; test: Induction of CD64Hi,PD-L1Hi cDCs in PBMCs incubated with TLR3 agonist and nanoparticle-encapsulated HIV-1 Gag DNA, without live virus; details: PBMCs from healthy (HIV-negative) individuals; 2 μg/ml Poly I:C and/or polymer nanoparticles loaded with 100 nucleotide HIV-1 Gag DNA; no live virus
Protocol: PBMC or isolated cDCs were stained with LIVE/DEAD cell blue viability dye (Invitrogen, Carlsbad, Calif.) and monoclonal antibodies directed against CD11c (Biolegend), CD14 (BD), HLA-DR, CD64, PDL-1, ICAM1, CD16, SLAMF8 (Biolegend) and subsequently analyzed on a Fortessa cytometer (BD Biosciences, San Jose, Calif.). For intracellular cytokine staining, cells were treated with a commercial fixation/permeabilization kit (BioLegend) according to the manufacturer's protocol. Data were analyzed with FlowJo software (Tree Star). cDCs were identified from bulk PBMCs as a population of viable CD14^− lymphocytes expressing high levels of CD11c and HLA-DR.
Finally, Applicants explored how Applicants might further exploit this TBK1-dependent innate immune sensing pathway to boost the fraction of cDCs acquiring the cluster 1 phenotype without exposure to live virus. For this purpose, Applicants incubated PBMCs from healthy individuals or ECs simultaneously with a TLR3 agonist (Poly(I:C)) and single- or double-stranded HIV-1 Gag DNA (ssDNA or dsDNA, respectively) encapsulated in polymeric nanoparticles. […]

[2] = system: cluster 1-like/CD64^Hi,PD-L1^Hi cDCs
[3] = system: cluster 1-like/CD64^Hi,PD-L1^Hi cDCs; test: Acquisition of the CD64Hi,PD-L1Hi cDC phenotype in elite controller cells exposed to virus with inhibitory drugs (flow cytometry)

## Poly(I:C)
[1]
  proportion of cluster 1-like/CD64^Hi,PD-L1^Hi cDCs: insufficient
[2]
  proportion of CD64^Hi PDL1^Hi cells among cDCs: significantly induce
[2]; 24 hours
  proportion of cluster 1-like/CD64^Hi,PD-L1^Hi cDCs: significantly induce; also recorded: induced a larger population; also recorded: significant increase

## O=C(N[C@H](Cc1ccccc1)C(=O)O)c1sc2cc(F)ccc2c1Cl [TLR3 inhibitor]
[3]; elite controllers (ECs), virus plus TLR3 or TLR4 antagonist vs DMSO, p=0.0^2, Wilcoxon matched-pairs signed-rank test
  acquisition of the cluster 1/CD64^Hi,PD-L1^Hi cDC phenotype: modest, but significant, effect

## O=C(NCCCNc1nc(Nc2cccc(NC(=O)N3CCCC3)c2)ncc1I)c1cccs1 [BX795]
[3]; EC PBMCs, 1 μM BX795 added at the time of viral addition, p=0.0020, Wilcoxon signed-rank test
  induction of the cluster 1-like/CD64^Hi,PD-L1^Hi population: dramatic and significant abrogation
